# Reference: US20230310352A1, “NOVEL COMPOSITIONS AND METHODS FOR THE TREATMENT OF LUNG FIBROSIS” (LAURENT PHARMACEUTICALS INC., priority 2020, published 2023)
# Entries after “also recorded” stand apart in the source; their conditions may differ.
# Legend:
# human lung microtissues = assay: Contractile force of TGF-β1 treated 3D lung microtissues (micropillar deflection); type: cell-based; conditions: for contractile force, reduction vs TGF-β1 only treated condition, percentage change: Day 6
# Source text: The lung microtissue chip system used is based on bio-MEMS technology that can assemble 3D cell-populated submillimeter microtissues in arrays of polydimethylsiloxane (PDMS) microwells. In each microwell, human lung fibroblasts or epithelial cells spontaneously contract and assemble the matrix proteins, such as collagen, into microtissues that anchor on top of an array of micropillars. The flexible micropillars serve as in situ force sensors that can report the contractile force generated by the tissue.
# The effect of fenretinide on the inhibition of microtissue contractile force in a preventative treatment regimen was also measured. Increased contractile force is one of the main biomechanical features associated with fibrosis progression. The spontaneous contraction force generated by individual microtissues was determined from the deflection of micropillars based on cantilever bending theory. Micropillar deflection was measured using phase contrast microscopy, by comparing the deflected position of the centroid of each pillar top to the centroid of its base. Microtissue contraction force was measured for the same batch of samples on a daily basis for each pharmacological condition. The micropillar spring constant was determined based on the actual geometry of the micropillar and the elastic modulus of the PDMS. […] In contrast, the force developed by untreated samples plateaued after 1 day at around 80 μN. […] The 4 μM fenretinide dose reduced the contractile force by Day 6 to around 70 μN, a reduction of about 38% as compared to TGF-β1 treated condition.
# The effect of fenretinide 4 μM dose on the inhibition of microtissue contractile force was tested in a therapeutic treatment regimen. Fibrosis was first allowed to progress for three days under the induction of TGF-β1 (5 ng/ml) and fenretinide was then added from day 3 to day 6 to model a therapeutic treatment. […] TGF-β1 present in media for 3 days and absent for following 3 days (mean±SD, n=8). However, on day 6 as compared to day 3, fenretinide at 2 μM reduced the tissue contractility by 10%, 4 μM fenretinide by 15% and the combination of 2 μM fenretinide and 1.6 mM pirfenidone by 26%.
# [1] = tested on: Normal human lung fibroblast cells (NHLF cells, ATCC CRL-7000); assay: αSMA mRNA transcript by qRT-PCR after TGF-β1 exposure in NHLF; type: cell-based; conditions: TGF-β1 2 ng/mL + fenretinide 1, 2, 3, 4 μM, 3 days, 5% FBS
# Description: Normal human lung fibroblast cells (NHLF cells, ATCC CRL-7000, EMEM media; 5% FBS) were incubated for 3 days at 37° C. and treated with TGF-β1 (2 ng/mL) or TGF-β1 (2 ng/mL)+Fenretinide (1, 2, 3, 4 μM). At the end of the 3 day-treatment period, media was removed using a vacuum pump and total ribonucleic acid (RNA) was isolated using the TriReagent protocol (BioShop) and cDNA was obtained by reverse transcription using the SUPERSCRIPT® VILO®. αSMA transcript levels were determined by quantitative real-time Polymerase Chain Reaction (qRT-PCR) using the Fast SyBR Master Mix and specific probes, and quantified following the ΔΔCT, normalized to PUM-1 expression as internal control. The experiment was performed in quadruplicate (4 wells/condition).
# [2] = tested on: bleomycin-induced lung fibrosis; assay: Intratracheal bleomycin mouse model of pulmonary fibrosis (21-day model); type: in vivo, C57BL/6N mice; conditions: Day 21, oral once daily for 14 days
# Description: Oral administration of a solid amorphous dispersion formulation of fenretinide (LAU-7b SDI) was evaluated in treating and/or reducing pulmonary fibrosis in mouse model of lung fibrosis induced via a single intratracheal administration of bleomycin followed by vehicle, fenretinide (LAU-7b SDI) or pirfenidone oral treatment for 21 days. The LAU-7b SDI formulation was obtained by spray drying and contains fenretinide in amorphous form in a solid dispersion comprising a matrix polymer, based on the following formula: 40% fenretinide, 59.6% povidone (KOLLIDON® 30), 0.24% butylated hydroxyanisole (BHA) and 0.16% butylated hydroxytoluene (BHT).
# Male C57BL/6N mice from Charles River Laboratories, 10-12 weeks of age, weighing around 20-25 g, at the time of their enrolment, received 50 μL of bleomycin sulfate (2.0 mg/kg) by a single intratracheal instillation on Day 1 of the study. The Sham group received an equivalent volume of 0.9% saline. On Day 7 post-bleomycin instillation the animals were randomized in groups of 8 animals based on their body weight loss and Penh value. Oral dosing by gavage (10 mL/kg) with the vehicle (sham and BLM Control groups), LAU-7b SDI (fenretinide at 5 mg/kg and 10 mg/kg dose), and the reference compound (pirfenidone 100 mg/kg) were initiated once daily starting from Day 7 to Day 21. Two hours following the last dose on Day 21 all the mice were sacrificed, the lungs of each mouse were harvested, flushed with 0.9% NaCl and inflated with 10% neutral buffered formalin solution. After embedding and mounting of the lung tissue (transversal slices of 5 μm thickness), the histology slides were stained with hematoxylin/eosin for the Ashcroft score evaluation by a treatment-blinded pathologist, and with Sirius red staining for automated fibrosis quantification (Biocellvia, France).
# As in Example 4, the key endpoints evaluated in this study were the Ashcroft score, pulmonary foci and collagen content obtained by histological assessment of the lung tissue at the end of the study. Statistical analysis was made on normally distributed data by one-way ANOVA followed by multiple comparisons (Fisher's LSD post hoc test) to assess the difference between the groups, using Graph Pad Prism Software version 8.0 (San Diego, CA, USA). Differences were considered statistically significant when P values were p<0.05 (*), or p<0.01 (**) or p<0.001 (***). The Ashcroft score was assessed in the lung tissue by treatment-blinded pathologist on the H&E stained histology slides (2 cross sections/animal) and using the modified Ashcroft scale. Briefly, each lung section was scanned at a magnification of ×100 (H&E staining), and graded from 0 (normal lung) to 8 (total fibrotic obliteration of the field). The mean value of the grades obtained for each of the two sections was used as the Ashcroft score.
# Pulmonary foci (fibrotic tissue) and lung collagen content were quantified in the Sirius red stained lung tissue histology sections by high resolution, automated digital image analysis (Biocellvia, France) on Day 21 after lung fibrosis induction by bleomycin (BLM) instillation and following a 14-day oral gavage treatment with LAU-7b SDI (fenretinide, two doses), pirfenidone (reference drug) or vehicle only. Full field analysis of 2 lung sections per animal was conducted and the results were expressed as a mean percentage of total surface. This test is considered highly reliable, offering reproducible and observer-independent assessment of quantitative analysis of fibrosis.
# [3] = fenretinide 5 mg/kg (as LAU-7b SDI)
# [4] = fenretinide 10 mg/kg (as LAU-7b SDI), pirfenidone 100 mg/kg
smiles,measurement,setting,value
"CC1=C(/C=C/C(C)=C/C=C/C(C)=C/C(=O)Nc2ccc(O)cc2)C(C)(C)CCC1 [fenretinide, 4-hydroxyphenyl retinamide]",inhibition at 4 µM,"human lung microtissues; Homo sapiens, therapeutic treatment, 4 μM, read-out: inhibition of contractile force as compared to TGF-β1 only treated condition (positive control)",57%
same,TGF-β1-induced increase in contractile force,"human lung microtissues; preventative treatment, 2 μM and 4 μM",inhibit TGF-131-induced increase in contractile force in a dose-dependent manner
same,microtissue contractile force,"human lung microtissues; preventative treatment, 2 μM, 6-day measurement (TGF-β1 only around 130 μN, untreated around 80 μN)",80-85 μN
same,"contractile force, reduction vs TGF-β1 only treated condition, percentage change","human lung microtissues; preventative treatment, 2 μM",about 28%
same,"contractile force, reduction vs TGF-β1 only treated condition, percentage change","human lung microtissues; preventative treatment, 2 μM, listed as Fenret",28.0%
same,"contractile force, reduction vs TGF-β1 only treated condition, percentage change","human lung microtissues; preventative treatment, 4 μM",about 38%
same,microtissue contractile force,"human lung microtissues; preventative treatment, 4 μM, Day 6 (TGF-β1 only around 130 μN, untreated around 80 μN)",around 70 μN
same,"contractile force, reduction vs TGF-β1 only treated condition, percentage change","human lung microtissues; preventative treatment, 4 μM, listed as Fenret",38.0%
same,reduction of tissue contractility on day 6 as compared to day 3,"human lung microtissues; therapeutic treatment, 2 μM",10%
same,reduction of tissue contractility on day 6 as compared to day 3,"human lung microtissues; therapeutic treatment, 4 μM",15%
same,"contractile force, reduction vs TGF-β1 +3/−3 group on day 6, percentage change","human lung microtissues; therapeutic treatment, added day 3 to day 6, 2 μM",34%
same,"contractile force, reduction vs TGF-β1 +3/−3 group on day 6, percentage change","human lung microtissues; therapeutic treatment, added day 3 to day 6, 2 μM, listed as Fenret",34.0%
same,"contractile force, reduction vs TGF-β1 +3/−3 group on day 6, percentage change","human lung microtissues; therapeutic treatment, added day 3 to day 6, 4 μM",34%
same,"contractile force, reduction vs TGF-β1 +3/−3 group on day 6, percentage change","human lung microtissues; therapeutic treatment, added day 3 to day 6, 4 μM, listed as Fenret",34.0%
same,"induction of α-SMA fibrotic marker expression (mRNA, qRT-PCR)",[1],"attenuates, in a dose-dependent manner; also recorded: dose-dependent attenuation"
same,Ashcroft score vs BLM control,[2]; [3],also reduced
same,"percentage of collagen content, automated Sirius red analysis, vs BLM control",[2]; [3],did not induce statistically significant reduction
same,"percentage of pulmonary foci, automated Sirius red analysis, vs BLM control",[2]; [3],did not induce statistically significant reduction
same,Ashcroft score vs BLM control,[2]; [4],reduced significantly
same,"percentage of collagen content, automated Sirius red analysis, vs BLM control",[2]; [4],reduced significantly (p<0.05)
same,"percentage of pulmonary foci, automated Sirius red analysis, vs BLM control",[2]; [4],reduced significantly (p<0.05)
